{
  "source": "paper PMC6270667",
  "about": "“Loddigesiinols G–J: α-Glucosidase Inhibitors from Dendrobium loddigesii” (Molecules, 2014)",
  "origin": "cited, not measured here",
  "molecular_target": "α-glucosidase (Saccharomyces cerevisiae, UniProt P53341)",
  "sequence (P53341 whole entry)": "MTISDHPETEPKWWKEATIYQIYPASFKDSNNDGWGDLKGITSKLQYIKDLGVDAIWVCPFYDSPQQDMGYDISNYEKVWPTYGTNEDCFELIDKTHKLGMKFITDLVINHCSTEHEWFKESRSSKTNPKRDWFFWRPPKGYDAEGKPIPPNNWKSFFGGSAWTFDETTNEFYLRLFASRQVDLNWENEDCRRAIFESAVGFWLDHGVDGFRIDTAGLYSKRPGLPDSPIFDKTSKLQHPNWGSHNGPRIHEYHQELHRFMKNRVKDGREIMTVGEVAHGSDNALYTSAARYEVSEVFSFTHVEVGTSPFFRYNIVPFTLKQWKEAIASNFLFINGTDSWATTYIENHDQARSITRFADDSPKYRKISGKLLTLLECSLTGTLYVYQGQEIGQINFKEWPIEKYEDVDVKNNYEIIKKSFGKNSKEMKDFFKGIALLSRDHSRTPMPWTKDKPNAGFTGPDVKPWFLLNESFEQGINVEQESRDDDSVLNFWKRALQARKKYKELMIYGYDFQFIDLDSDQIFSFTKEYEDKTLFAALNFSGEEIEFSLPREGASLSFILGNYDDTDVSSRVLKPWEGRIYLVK",
  "set-up": "method as in PMID 16478243",
  "conditions": "reported in the literature",
  "data": [
    {"smiles": "Oc1ccc(/C=C/c2cc(O)cc(O)c2)cc1", "note": "[trans-Resveratrol, trans-resveratrol]", "values": [
      {"measurement": "α-glucosidase inhibitory effect compared with the clinical drug acarbose", "result": "more potent inhibitory effect than the clinical drug acarbose"}
    ]}
  ]
}
